What was measured:
barnyardgrass [1] = experiment: Test B flooded paddy test; type: in vivo, Echinochloa crus-galli; conditions: 500 g ai/ha, Flood; scale of 0 to 100 where 0 is no effect and 100 is complete control
In short: (§1)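 Treatment was made at the 2-leaf stage by dosing the standing floodwater, kept 3 cm above soil level for the whole test. Greenhouse exposure lasted 13 to 15 days. Response is a visual percent rating relative to controls, where a dash indicates no test result.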

giant foxtail = experiment: Test A pre-/postemergence herbicide test; type: in vivo, Setaria faberii; conditions: for Plant response rating, Foxtail, Giant: 0 to 100 scale
In short: (§2)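 Scoring was visual, relative to untreated controls, on a 0–100 scale after about 10 greenhouse days. Preemergence treatment used a directed soil spray over seeded loam/sand; postemergence treatment targeted one- to two-leaf plants of 2–10 cm.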

barnyardgrass [2] = experiment: Test A pre-/postemergence herbicide test; type: in vivo, Echinochloa crus-galli
In short: as §2

sedge, umbrella = experiment: Test B flooded paddy test; type: in vivo, Cyperus difformis; conditions: 500 g ai/ha, Flood; scale of 0 to 100 where 0 is no effect and 100 is complete control
In short: as §1

ragweed = experiment: Test A pre-/postemergence herbicide test; type: in vivo, Ambrosia elatior; conditions: for Plant response rating, Ragweed: 0 to 100 scale
In short: as §2

blackgrass = experiment: Test A postemergence herbicide test; type: in vivo, Alopecurus myosuroides; conditions: for Plant response rating, Blackgrass: 125 g ai/ha, 0 to 100 scale, 0 no effect, 100 complete control; for Blackgrass plant response rating (0 to 100 scale, 0 is no effect, 100 is complete control): 500 g ai/ha
In short: (§3)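 Potted in loam soil/sand blend; postemergence application at 1–2 leaf stage (2–10 cm). Greenhouse ~10 d. Visual injury vs untreated, 0–100 scale; 100 = complete control.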

galium = experiment: Test A postemergence herbicide test; type: in vivo, Galium aparine; conditions: for Plant response rating, Galium: 125 g ai/ha, 0 to 100 scale, 0 no effect, 100 complete control; for Galium plant response rating (0 to 100 scale, 0 is no effect, 100 is complete control): 500 g ai/ha
In short: as §3

corn = experiment: Test A pre-/postemergence herbicide test; type: in vivo, Zea mays; conditions: Postemergence; for Plant response rating, Corn: 125 g ai/ha, 0 to 100 scale, 0 no effect, 100 complete control; for Corn plant response rating (0 to 100 scale, 0 is no effect, 100 is complete control): 500 g ai/ha
In short: as §2

kochia = experiment: Test A pre-/postemergence herbicide test; type: in vivo, Kochia scoparia; conditions: for Plant response rating, Kochia: 0 to 100 scale
In short: as §2

pigweed = experiment: Test A pre-/postemergence herbicide test; type: in vivo, Amaranthus retroflexus; conditions: for Plant response rating, Pigweed: 0 to 100 scale
In short: as §2

ducksalad = experiment: Test B flooded paddy test; type: in vivo, Heteranthera limosa; conditions: 500 g ai/ha, Flood; scale of 0 to 100 where 0 is no effect and 100 is complete control
In short: as §1

wheat = experiment: Test A pre-/postemergence herbicide test; type: in vivo, Triticum aestivum; conditions: Postemergence; for Plant response rating, Wheat: 125 g ai/ha, 0 to 100 scale, 0 no effect, 100 complete control; for Wheat plant response rating (0 to 100 scale, 0 is no effect, 100 is complete control): 500 g ai/ha
In short: as §2

ryegrass, Italian = experiment: Test A pre-/postemergence herbicide test; type: in vivo, Lolium multiflorum; conditions: for Plant response rating, Ryegrass, Italian: 0 to 100 scale
In short: as §2

rice = experiment: Test B flooded paddy test; type: in vivo, Oryza sativa; conditions: 500 g ai/ha, Flood; scale of 0 to 100 where 0 is no effect and 100 is complete control
In short: as §1

[3] = 125 g ai/ha, visual rating, 0 no effect, 100 complete control, approximately 10 days, preemergence
[4] = Postemergence, 125 g ai/ha, 0 no effect, 100 complete control
[5] = 125 g ai/ha, visual rating, 0 to 100 scale, 0 no effect, 100 complete control, approximately 10 days, preemergence
[6] = Postemergence, 125 g ai/ha, 0 to 100 scale, 0 no effect, 100 complete control
[7] = preemergence, 500 g ai/ha, 0 to 100 scale (0 no effect, 100 complete control)

Cc1ccc(C2CNC(=O)C2C(=O)Nc2cccc(F)c2F)cc1F (racemic) [Compound 146]
80: Plant response rating, Barnyardgrass (barnyardgrass [1]) | Plant response rating, Foxtail, Giant (giant foxtail; [3])
70: Foxtail, Giant plant response rating (0 to 100 scale, 0 is no effect, 100 is complete control) (giant foxtail; Postemergence, 500 g ai/ha) | Blackgrass plant response rating (0 to 100 scale, 0 is no effect, 100 is complete control) (blackgrass) | Galium plant response rating (0 to 100 scale, 0 is no effect, 100 is complete control) (galium) | Kochia plant response rating (0 to 100 scale, 0 is no effect, 100 is complete control) (kochia; Postemergence, 500 g ai/ha) | Wheat plant response rating (0 to 100 scale, 0 is no effect, 100 is complete control) (wheat)
0: Plant response rating, Foxtail, Giant (giant foxtail; [4]) | Plant response rating, Sedge, Umbrella (sedge, umbrella) | Plant response rating, Ragweed (ragweed; [3]) | Plant response rating, Ragweed (ragweed; [4]) | Plant response rating, Corn (corn) | Plant response rating, Kochia (kochia; [3]) | Plant response rating, Kochia (kochia; [4]) | Plant response rating, Pigweed (pigweed; [3]) | Plant response rating, Pigweed (pigweed; [4]) | Pigweed plant response rating (0 to 100 scale, 0 is no effect, 100 is complete control) (pigweed; Postemergence, 500 g ai/ha) | Plant response rating, Pigweed (pigweed; preemergence, 500 g ai/ha) | Plant response rating, Wheat (wheat) | Plant response rating, Ryegrass, Italian (ryegrass, Italian; [3]) | Plant response rating, Rice (rice)
30: Plant response rating, Ragweed (ragweed; preemergence, 500 g ai/ha) | Plant response rating, Blackgrass (blackgrass) | Plant response rating, Kochia (kochia; preemergence, 500 g ai/ha)
50: Corn plant response rating (0 to 100 scale, 0 is no effect, 100 is complete control) (corn)
100: Plant response rating, Ducksalad (ducksalad)
20: Plant response rating, Ryegrass, Italian (ryegrass, Italian; [4])
40: Plant response rating, Galium (galium) | Plant response rating, Ryegrass, Italian (ryegrass, Italian; preemergence, 500 g ai/ha)
60: Ragweed plant response rating (0 to 100 scale, 0 is no effect, 100 is complete control) (ragweed; Postemergence, 500 g ai/ha) | Ryegrass, Italian plant response rating (0 to 100 scale, 0 is no effect, 100 is complete control) (ryegrass, Italian; Postemergence, 500 g ai/ha)
90: Plant response rating, Foxtail, Giant (giant foxtail; preemergence, 500 g ai/ha) | Plant response rating, Barnyardgrass (barnyardgrass [2]; [5]) | Plant response rating, Barnyardgrass (barnyardgrass [2]; [6]) | Barnyardgrass plant response rating (0 to 100 scale, 0 is no effect, 100 is complete control) (barnyardgrass [2]; Postemergence, 500 g ai/ha) | Plant response rating, Barnyardgrass (barnyardgrass [2]; [7])

Cc1ccc(C2CNC(=O)C2C(=O)Nc2ccc(F)c(F)c2F)cc1F (racemic) [Compound 147]
70: Plant response rating, Barnyardgrass (barnyardgrass [1]) | Foxtail, Giant plant response rating (0 to 100 scale, 0 is no effect, 100 is complete control) (giant foxtail; Postemergence, 500 g ai/ha)
30: Plant response rating, Kochia (kochia; [3])
10: Pigweed plant response rating (0 to 100 scale, 0 is no effect, 100 is complete control) (pigweed; Postemergence, 500 g ai/ha)
100: Plant response rating, Ducksalad (ducksalad)
0: Plant response rating, Sedge, Umbrella (sedge, umbrella) | Plant response rating, Ragweed (ragweed; [3]) | Plant response rating, Ragweed (ragweed; [4]) | Plant response rating, Corn (corn) | Plant response rating, Pigweed (pigweed; [3]) | Plant response rating, Pigweed (pigweed; [4]) | Plant response rating, Pigweed (pigweed; preemergence, 500 g ai/ha) | Plant response rating, Wheat (wheat) | Plant response rating, Ryegrass, Italian (ryegrass, Italian; [3]) | Plant response rating, Rice (rice)
60: Blackgrass plant response rating (0 to 100 scale, 0 is no effect, 100 is complete control) (blackgrass) | Galium plant response rating (0 to 100 scale, 0 is no effect, 100 is complete control) (galium) | Kochia plant response rating (0 to 100 scale, 0 is no effect, 100 is complete control) (kochia; Postemergence, 500 g ai/ha)
50: Ragweed plant response rating (0 to 100 scale, 0 is no effect, 100 is complete control) (ragweed; Postemergence, 500 g ai/ha) | Plant response rating, Ragweed (ragweed; preemergence, 500 g ai/ha) | Plant response rating, Galium (galium) | Corn plant response rating (0 to 100 scale, 0 is no effect, 100 is complete control) (corn) | Ryegrass, Italian plant response rating (0 to 100 scale, 0 is no effect, 100 is complete control) (ryegrass, Italian; Postemergence, 500 g ai/ha)
20: Plant response rating, Ryegrass, Italian (ryegrass, Italian; [4])
90: Plant response rating, Foxtail, Giant (giant foxtail; preemergence, 500 g ai/ha) | Plant response rating, Barnyardgrass (barnyardgrass [2]; [5]) | Plant response rating, Barnyardgrass (barnyardgrass [2]; [6]) | Barnyardgrass plant response rating (0 to 100 scale, 0 is no effect, 100 is complete control) (barnyardgrass [2]; Postemergence, 500 g ai/ha) | Plant response rating, Barnyardgrass (barnyardgrass [2]; [7])
80: Plant response rating, Foxtail, Giant (giant foxtail; [3]) | Plant response rating, Kochia (kochia; preemergence, 500 g ai/ha)
40: Plant response rating, Foxtail, Giant (giant foxtail; [4]) | Plant response rating, Blackgrass (blackgrass) | Plant response rating, Kochia (kochia; [4]) | Wheat plant response rating (0 to 100 scale, 0 is no effect, 100 is complete control) (wheat) | Plant response rating, Ryegrass, Italian (ryegrass, Italian; preemergence, 500 g ai/ha)

Cc1ccc(C2CNC(=O)C2C(=O)Nc2ccc(F)cc2F)cc1 (racemic) [Compound 150]
10: Blackgrass plant response rating (0 to 100 scale, 0 is no effect, 100 is complete control) (blackgrass)
80: Plant response rating, Barnyardgrass (barnyardgrass [1]) | Plant response rating, Barnyardgrass (barnyardgrass [2]; [5]) | Plant response rating, Barnyardgrass (barnyardgrass [2]; [6]) | Barnyardgrass plant response rating (0 to 100 scale, 0 is no effect, 100 is complete control) (barnyardgrass [2]; Postemergence, 500 g ai/ha)
90: Plant response rating, Foxtail, Giant (giant foxtail; preemergence, 500 g ai/ha) | Plant response rating, Barnyardgrass (barnyardgrass [2]; [7]) | Plant response rating, Kochia (kochia; preemergence, 500 g ai/ha)
20: Ragweed plant response rating (0 to 100 scale, 0 is no effect, 100 is complete control) (ragweed; Postemergence, 500 g ai/ha) | Pigweed plant response rating (0 to 100 scale, 0 is no effect, 100 is complete control) (pigweed; Postemergence, 500 g ai/ha)
100: Plant response rating, Ducksalad (ducksalad)
30: Plant response rating, Foxtail, Giant (giant foxtail; [4]) | Corn plant response rating (0 to 100 scale, 0 is no effect, 100 is complete control) (corn) | Plant response rating, Kochia (kochia; [4])
70: Plant response rating, Foxtail, Giant (giant foxtail; [3]) | Foxtail, Giant plant response rating (0 to 100 scale, 0 is no effect, 100 is complete control) (giant foxtail; Postemergence, 500 g ai/ha)
50: Plant response rating, Ragweed (ragweed; preemergence, 500 g ai/ha) | Plant response rating, Galium (galium) | Plant response rating, Ryegrass, Italian (ryegrass, Italian; preemergence, 500 g ai/ha)
60: Galium plant response rating (0 to 100 scale, 0 is no effect, 100 is complete control) (galium) | Plant response rating, Kochia (kochia; [3]) | Kochia plant response rating (0 to 100 scale, 0 is no effect, 100 is complete control) (kochia; Postemergence, 500 g ai/ha)
0: Plant response rating, Sedge, Umbrella (sedge, umbrella) | Plant response rating, Ragweed (ragweed; [3]) | Plant response rating, Ragweed (ragweed; [4]) | Plant response rating, Blackgrass (blackgrass) | Plant response rating, Corn (corn) | Plant response rating, Pigweed (pigweed; [3]) | Plant response rating, Pigweed (pigweed; [4]) | Plant response rating, Pigweed (pigweed; preemergence, 500 g ai/ha) | Plant response rating, Wheat (wheat) | Wheat plant response rating (0 to 100 scale, 0 is no effect, 100 is complete control) (wheat) | Plant response rating, Ryegrass, Italian (ryegrass, Italian; [3]) | Plant response rating, Ryegrass, Italian (ryegrass, Italian; [4]) | Ryegrass, Italian plant response rating (0 to 100 scale, 0 is no effect, 100 is complete control) (ryegrass, Italian; Postemergence, 500 g ai/ha) | Plant response rating, Rice (rice)
